In the assay the target is T1, PvdL (Pseudomonas putida, UniProt Q88F56).
T1 construct: monomer
The assay is described as follows: LC/HRMS of product N-myristoyl-L-glutamic acid after base hydrolysis. Particulars: 1 uM PvdL, 200 uM myristic acid, 1 mM L-Glu, 5 mM ATP, 10 mM MgCl2, pH 7.6, 25 °C; first two modules; product covalent on PvdL. In kind it is biochemical.

Consider one molecule from PMC11855355, “In-Situ Purification of Non-Ribosomal Peptide Synthetases Assembly Line for Structural and Biochemical Studies” (International Journal of Molecular Sciences, 2025).

T1 sequence (Q88F56 1-4317): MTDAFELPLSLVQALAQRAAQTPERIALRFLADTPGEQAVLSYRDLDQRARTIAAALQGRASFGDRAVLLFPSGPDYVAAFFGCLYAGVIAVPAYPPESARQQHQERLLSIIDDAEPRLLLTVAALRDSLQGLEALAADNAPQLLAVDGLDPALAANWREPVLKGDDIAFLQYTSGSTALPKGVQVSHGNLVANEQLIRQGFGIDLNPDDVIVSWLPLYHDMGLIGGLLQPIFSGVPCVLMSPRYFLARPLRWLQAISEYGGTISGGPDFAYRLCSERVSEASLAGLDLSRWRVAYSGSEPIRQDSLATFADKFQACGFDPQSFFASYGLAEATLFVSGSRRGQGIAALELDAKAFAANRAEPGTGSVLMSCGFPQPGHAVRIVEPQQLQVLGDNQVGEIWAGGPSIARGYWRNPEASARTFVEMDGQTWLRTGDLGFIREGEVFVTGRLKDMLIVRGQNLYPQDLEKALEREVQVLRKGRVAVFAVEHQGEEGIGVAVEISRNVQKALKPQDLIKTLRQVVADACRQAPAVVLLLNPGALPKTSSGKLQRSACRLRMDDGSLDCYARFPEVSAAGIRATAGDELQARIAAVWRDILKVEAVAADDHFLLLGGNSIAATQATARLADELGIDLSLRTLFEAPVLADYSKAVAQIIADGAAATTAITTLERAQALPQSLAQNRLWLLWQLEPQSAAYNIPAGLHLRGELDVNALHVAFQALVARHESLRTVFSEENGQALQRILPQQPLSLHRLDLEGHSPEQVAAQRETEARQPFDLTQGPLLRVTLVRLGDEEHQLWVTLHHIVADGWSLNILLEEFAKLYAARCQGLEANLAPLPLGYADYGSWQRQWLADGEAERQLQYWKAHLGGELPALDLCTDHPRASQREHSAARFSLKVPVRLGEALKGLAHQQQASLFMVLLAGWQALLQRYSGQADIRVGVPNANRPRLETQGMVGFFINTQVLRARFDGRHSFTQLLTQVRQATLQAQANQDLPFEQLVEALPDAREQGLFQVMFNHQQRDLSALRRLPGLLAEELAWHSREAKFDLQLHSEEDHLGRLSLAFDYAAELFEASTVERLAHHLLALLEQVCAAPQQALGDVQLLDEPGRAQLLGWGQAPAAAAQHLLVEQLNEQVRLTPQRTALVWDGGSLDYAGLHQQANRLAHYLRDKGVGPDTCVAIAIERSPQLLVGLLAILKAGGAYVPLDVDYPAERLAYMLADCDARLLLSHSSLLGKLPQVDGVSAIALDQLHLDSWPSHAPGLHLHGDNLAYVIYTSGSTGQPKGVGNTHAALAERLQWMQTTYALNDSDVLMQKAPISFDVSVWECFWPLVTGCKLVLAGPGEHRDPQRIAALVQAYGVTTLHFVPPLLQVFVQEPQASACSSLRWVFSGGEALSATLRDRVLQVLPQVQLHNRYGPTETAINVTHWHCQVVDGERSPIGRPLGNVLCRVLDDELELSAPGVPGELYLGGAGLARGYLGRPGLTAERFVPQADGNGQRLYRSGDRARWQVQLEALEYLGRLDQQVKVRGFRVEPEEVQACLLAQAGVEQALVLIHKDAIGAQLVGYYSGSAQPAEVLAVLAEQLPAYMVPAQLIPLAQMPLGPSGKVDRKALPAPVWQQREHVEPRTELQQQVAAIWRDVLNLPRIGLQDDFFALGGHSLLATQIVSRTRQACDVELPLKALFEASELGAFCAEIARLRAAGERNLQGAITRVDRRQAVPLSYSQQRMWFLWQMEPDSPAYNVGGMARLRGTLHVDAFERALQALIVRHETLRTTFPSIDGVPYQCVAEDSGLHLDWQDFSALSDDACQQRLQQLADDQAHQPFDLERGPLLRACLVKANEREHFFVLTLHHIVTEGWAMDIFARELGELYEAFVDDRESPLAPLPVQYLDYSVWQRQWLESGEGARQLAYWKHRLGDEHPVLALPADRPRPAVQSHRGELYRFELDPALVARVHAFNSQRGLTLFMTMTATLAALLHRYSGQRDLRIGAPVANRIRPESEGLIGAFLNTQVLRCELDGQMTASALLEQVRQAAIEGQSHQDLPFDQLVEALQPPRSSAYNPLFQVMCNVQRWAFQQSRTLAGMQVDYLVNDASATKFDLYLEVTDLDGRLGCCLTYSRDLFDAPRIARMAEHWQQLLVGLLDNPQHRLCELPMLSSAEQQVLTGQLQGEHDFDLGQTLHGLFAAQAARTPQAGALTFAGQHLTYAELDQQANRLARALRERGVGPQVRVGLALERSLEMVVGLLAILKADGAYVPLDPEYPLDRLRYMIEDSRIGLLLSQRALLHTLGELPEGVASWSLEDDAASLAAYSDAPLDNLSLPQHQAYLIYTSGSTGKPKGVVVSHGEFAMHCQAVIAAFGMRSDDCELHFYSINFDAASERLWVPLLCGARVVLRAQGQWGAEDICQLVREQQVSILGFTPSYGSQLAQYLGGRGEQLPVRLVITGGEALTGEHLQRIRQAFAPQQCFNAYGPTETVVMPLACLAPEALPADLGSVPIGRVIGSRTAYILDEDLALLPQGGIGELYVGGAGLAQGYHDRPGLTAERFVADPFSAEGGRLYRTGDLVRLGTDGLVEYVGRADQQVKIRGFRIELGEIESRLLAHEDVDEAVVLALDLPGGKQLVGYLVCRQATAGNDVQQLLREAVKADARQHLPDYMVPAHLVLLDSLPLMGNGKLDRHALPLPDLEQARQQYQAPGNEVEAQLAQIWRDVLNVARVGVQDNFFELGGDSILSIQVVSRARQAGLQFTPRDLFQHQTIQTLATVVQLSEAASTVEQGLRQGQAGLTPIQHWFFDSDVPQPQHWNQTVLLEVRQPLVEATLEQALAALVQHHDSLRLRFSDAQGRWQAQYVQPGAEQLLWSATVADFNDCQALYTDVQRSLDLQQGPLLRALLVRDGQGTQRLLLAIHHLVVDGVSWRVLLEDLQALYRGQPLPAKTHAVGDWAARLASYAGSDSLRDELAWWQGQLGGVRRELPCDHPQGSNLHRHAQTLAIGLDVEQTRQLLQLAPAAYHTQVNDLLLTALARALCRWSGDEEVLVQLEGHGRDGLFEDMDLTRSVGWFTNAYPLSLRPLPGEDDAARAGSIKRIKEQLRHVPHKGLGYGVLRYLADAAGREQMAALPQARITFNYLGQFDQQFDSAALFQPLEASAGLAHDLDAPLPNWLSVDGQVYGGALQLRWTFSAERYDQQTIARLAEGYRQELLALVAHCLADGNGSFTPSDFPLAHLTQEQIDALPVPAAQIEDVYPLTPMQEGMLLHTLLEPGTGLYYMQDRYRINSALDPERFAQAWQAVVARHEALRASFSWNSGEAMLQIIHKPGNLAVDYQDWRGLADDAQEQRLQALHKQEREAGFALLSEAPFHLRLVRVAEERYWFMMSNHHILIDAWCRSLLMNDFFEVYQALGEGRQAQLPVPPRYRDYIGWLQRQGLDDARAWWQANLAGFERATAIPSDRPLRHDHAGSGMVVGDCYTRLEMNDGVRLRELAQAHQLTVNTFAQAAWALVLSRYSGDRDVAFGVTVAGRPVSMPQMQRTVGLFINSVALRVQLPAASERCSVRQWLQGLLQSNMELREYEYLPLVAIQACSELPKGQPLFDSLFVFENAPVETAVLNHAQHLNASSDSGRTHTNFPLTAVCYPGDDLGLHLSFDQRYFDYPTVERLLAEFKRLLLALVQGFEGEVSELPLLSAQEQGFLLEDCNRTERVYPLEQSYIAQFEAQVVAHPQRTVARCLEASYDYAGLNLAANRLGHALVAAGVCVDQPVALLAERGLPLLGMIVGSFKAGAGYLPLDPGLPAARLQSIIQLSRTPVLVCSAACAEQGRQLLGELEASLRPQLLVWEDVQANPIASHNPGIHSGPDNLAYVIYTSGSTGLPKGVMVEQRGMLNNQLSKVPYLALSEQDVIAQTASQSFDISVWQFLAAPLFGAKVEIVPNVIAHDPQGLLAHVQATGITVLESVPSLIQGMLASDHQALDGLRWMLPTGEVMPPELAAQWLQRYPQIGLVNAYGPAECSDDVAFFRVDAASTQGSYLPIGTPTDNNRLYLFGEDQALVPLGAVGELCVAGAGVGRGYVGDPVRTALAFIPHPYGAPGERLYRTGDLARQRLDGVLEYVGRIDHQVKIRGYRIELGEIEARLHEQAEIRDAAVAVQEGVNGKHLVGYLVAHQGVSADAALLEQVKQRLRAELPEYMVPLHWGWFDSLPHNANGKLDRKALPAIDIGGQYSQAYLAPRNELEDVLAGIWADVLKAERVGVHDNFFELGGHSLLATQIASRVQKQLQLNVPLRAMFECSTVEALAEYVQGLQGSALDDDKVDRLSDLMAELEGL

As for `N[C@@H](CCC(=O)O)C(=O)O` [L-Glu], the “LC/HRMS of product N-myristoyl-L-glutamic acid after base hydrolysis” value was “ATP-energy-dependent activation and condensation of myristic acid and glutamic acid”.
